Data reported in the CheMixHub viscosity set.
Values joined by “and” are separate entries in the source; they are usually repeats but may differ in a detail not shown here. Equal values may be shown once.

Columns and labels:
[1] = xn = mol fraction of the nth substance listed; settings: 101 kPa

CCOC(=O)c1ccccc1
Settings	viscosity
293.15 K, 101.33 kPa	2.013 mPa·s and 2.21 mPa·s
298.15 K, 101.33 kPa	1.954 mPa·s and 1.936 mPa·s
303.15 K, 101.33 kPa	1.597 mPa·s and 1.77 mPa·s and 1.811 mPa·s
308 K, 101.3 kPa	1.593 mPa·s
308.15 K, 101.33 kPa	1.61 mPa·s and 1.591 mPa·s
313 K, 101.3 kPa	1.446 mPa·s
313.15 K, 101 kPa	1.446 mPa·s and 1.463 mPa·s and 1.461 mPa·s
313.15 K, 101.33 kPa	1.284 mPa·s and 1.453 mPa·s
318 K, 101.3 kPa	1.339 mPa·s
318.15 K, 101 kPa	1.339 mPa·s and 1.35 mPa·s
318.15 K, 101.33 kPa	1.332 mPa·s
323 K, 101.3 kPa	1.254 mPa·s
323.15 K, 101 kPa	1.254 mPa·s
323.15 K, 101.33 kPa	1.058 mPa·s

c1cscn1
Settings	viscosity [mPa·s]
298.15 K, 101 kPa	1.008

CCS(=O)CC
101 kPa
Settings	viscosity [mPa·s]
298.15 K	2.32
303.15 K	2.1
308.15 K	1.88
313.15 K	1.74
318.15 K	1.59
323.15 K	1.31

CCOC(=O)[C@@H](O)[C@H](O)C(=O)OCC
101 kPa
Settings	viscosity
293.15 K	221.3 mPa·s
298.15 K	137.7 mPa·s and 137.7 mPa·s
303.15 K	90.07 mPa·s and 90.07 mPa·s
308.15 K	61.58 mPa·s and 61.58 mPa·s
313.15 K	43.68 mPa·s and 43.68 mPa·s
318.15 K	32.1 mPa·s and 32.1 mPa·s
323.15 K	24.37 mPa·s and 24.37 mPa·s

C=C(C)C(=O)OCC
101 kPa
Settings	viscosity [mPa·s]
298.15 K	0.6412
303.15 K	0.5825
308.15 K	0.5323
313.15 K	0.4915
318.15 K	0.4586

CCCCC1CCCCC1
Settings	viscosity [mPa·s]
323.15 K, 100 kPa	0.835

CCCCCCCCn1cc[n+](C)c1.O=S(=O)([N-]S(=O)(=O)C(F)(F)F)C(F)(F)F
Settings	viscosity [mPa·s]
308.15 K, 100 kPa	56.43

CNS(C)(=O)=O
Settings	viscosity [mPa·s]
303.15 K, 101.33 kPa	8.242

N#CCc1ccccc1
Settings	viscosity [mPa·s]
298.15 K, 101 kPa	1.868

CCCCCl
101 kPa
Settings	viscosity [mPa·s]
298.15 K	0.428
318.15 K	0.356
323.15 K	0.34

CCNC(C)=O
Settings	viscosity [mPa·s]
298.16 K, 101 kPa	5.89

COC(=O)c1ccccc1O
Settings	viscosity [mPa·s]
303.15 K, 101 kPa	2.44

CC(C)O
Settings	viscosity
293.15 K, 101.32 kPa	2.29 mPa·s
298.15 K, 101.3 kPa	2.012 mPa·s
298.15 K, 101.33 kPa	1.936 mPa·s
303 K, 101 kPa	1.49 mPa·s
303.15 K, 100 kPa	1.73 mPa·s
303.15 K, 101.33 kPa	1.878 mPa·s and 1.731 mPa·s and 1.4 mPa·s
308.15 K, 100 kPa	1.579 mPa·s and 1.49 mPa·s
308.15 K, 101.3 kPa	1.485 mPa·s
308.15 K, 101.33 kPa	1.494 mPa·s
313 K, 101 kPa	1.13 mPa·s
313.15 K, 101 kPa	1.319 mPa·s and 1.281 mPa·s and 1.4 mPa·s
313.15 K, 101.3 kPa	1.322 mPa·s
313.15 K, 101.33 kPa	1.427 mPa·s and 1 mPa·s
318.15 K, 100 kPa	1.171 mPa·s
318.15 K, 101 kPa	1.228 mPa·s
323.15 K, 100 kPa	0.995 mPa·s
323.15 K, 101 kPa	1.063 mPa·s and 1.083 mPa·s
323.15 K, 101.33 kPa	1.105 mPa·s and 1.056 mPa·s

OCC(F)(F)C(F)F
100 kPa
Settings	viscosity [mPa·s]
298.15 K	4.861
323.15 K	2.156

CC1CCCCC1
Settings	viscosity
293.15 K, 100 kPa	0.736 mPa·s (2×) and 0.73 mPa·s
293.15 K, 101.2 kPa	0.7298 mPa·s
298.15 K, 100 kPa	0.69 mPa·s
298.15 K, 101 kPa	0.68 mPa·s
298.15 K, 101.2 kPa	0.6819 mPa·s
303.15 K, 100 kPa	0.65 mPa·s and 0.639 mPa·s
303.15 K, 101 kPa	0.6416 mPa·s
303.15 K, 101.2 kPa	0.6389 mPa·s
303.15 K, 101.3 kPa	0.6407 mPa·s
303.15 K, 101.33 kPa	0.639 mPa·s
308.15 K, 100 kPa	0.61 mPa·s
313.15 K, 100 kPa	0.568 mPa·s
313.15 K, 101.2 kPa	0.5641 mPa·s
318.15 K, 100 kPa	0.54 mPa·s
318.15 K, 101.2 kPa	0.5314 mPa·s
323.15 K, 100 kPa	0.51 mPa·s and 0.501 mPa·s

Cc1cccc([N+](=O)[O-])c1
Settings	viscosity [mPa·s]
308.15 K, 101.33 kPa	1.692

C1=CCCCC1
Settings	viscosity [mPa·s]
303.15 K, 101 kPa	0.573

CCCNCCC
viscosity
Settings	298.15 K	303.15 K	308.15 K	318.15 K
100 kPa	0.504 mPa·s and 0.5042 mPa·s (2×)	0.471 mPa·s and 0.4706 mPa·s (2×)	0.444 mPa·s and 0.4444 mPa·s (2×)	–
101.33 kPa	0.503 mPa·s	–	0.444 mPa·s	0.386 mPa·s

CC(C)CC1CCCCC1
102 kPa
Settings	viscosity [mPa·s]
293.15 K	1.17
303.15 K	1
313.15 K	0.871
323.15 K	0.765

OC1CCCCCCC1
100 kPa
Settings	viscosity [mPa·s]
293.15 K	210
298.15 K	143
303.15 K	102.5
308.15 K	72
313.15 K	55
318.15 K	40

CCCCCl + C1CCOC1
viscosity [mPa·s], [1]
Settings	298.15 K	313.15 K
x2 = 0.0418	0.4311	0.3702
x2 = 0.052	0.434	–
x2 = 0.0524	0.4231	0.3656
x2 = 0.0982	0.4366	0.3758
x2 = 0.0985	0.439	–
x2 = 0.108	0.425	0.3675
x2 = 0.153	0.443	–
x2 = 0.1781	0.442	0.3808
x2 = 0.2063	0.4287	0.3706
x2 = 0.2076	0.444	0.3826
x2 = 0.29	0.449	–
x2 = 0.2991	0.4324	0.3737
x2 = 0.2996	0.4479	0.3869
x2 = 0.36	0.452	–
x2 = 0.4	0.4522	0.3911
x2 = 0.4088	0.4367	0.3772
x2 = 0.4229	0.455	–
x2 = 0.445	0.456	–
x2 = 0.4998	0.4547	0.3937
x2 = 0.507	0.4408	0.3804
x2 = 0.5395	0.457	–
x2 = 0.5516	0.4553	0.3943
x2 = 0.5945	0.458	–
x2 = 0.5979	0.4565	0.3955
x2 = 0.6074	0.4453	0.3838
x2 = 0.6605	0.459	–
x2 = 0.6991	0.458	0.3977
x2 = 0.7001	0.4495	0.387
x2 = 0.7649	0.46	–
x2 = 0.8021	0.4598	0.3997
x2 = 0.8054	0.4546	0.3907
x2 = 0.8499	0.46	0.3999
x2 = 0.8658	0.461	–
x2 = 0.891	0.4587	0.3939
x2 = 0.8993	0.4607	0.4
x2 = 0.9108	0.46	–
x2 = 0.9519	0.4598	0.4006
x2 = 0.9528	0.4613	0.3961

O=C(Nc1ccccc1)c1ccccc1 + c1ccncc1
[1], 298.15 K
Settings	viscosity [mPa·s]
x1 = 0.0224	1.027
x1 = 0.0382	1.121
x1 = 0.05536	1.252
